{"source": "ChEMBL document CHEMBL1201862", "about": "“PubChem BioAssay data set” (2004)", "key": {"[1]": {"assay": "T. b. rhodesiense proliferation inhibition, dose response, STIB900 strain, plate reader, cherry pick (AID 651893)", "format": "functional, cell-based", "conditions": "Trypanosoma brucei"}, "[2]": {"assay": "L. donovani amastigote growth inhibition, dose response, axenic amastigotes, plate reader, cherry pick (AID 651891)", "format": "functional, cell-based", "conditions": "Leishmania donovani"}, "[3]": {"assay": "Inhibition of Plasmodium falciparum NF54 Measured in Cell-Based System Using Plate Reader - 2138-11_Inhibitor_Dose_CherryPick_Activity.", "format": "functional"}, "[4]": {"assay": "cytotoxicity in L-6 rat myocytes, dose response, cytotoxicity control, cell-based, plate reader, cherry-pick (AID 651896)", "format": "functional"}, "[5]": {"assay": "intracellular Trypanosoma cruzi inhibitors in host cells – cell-based, plate reader, cherry-pick samples, set 3, dose response (AID 651818);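 also: compounds incubated with infected cells for about four days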", "format": "functional"}, "[6]": {"assay": "Inhibition of T. cruzi Tulahuen strain amastigotes in L-6 muscle cells Measured in Cell-Based and Microorganism Combination System Using Plate Reader - 2138-03_Inhibitor_Dose_CherryPick_Activity.", "format": "functional", "conditions": "Rattus norvegicus, L6"}, "[7]": {"biological_target": "T1, DNA repair and recombination protein RAD54-like (Homo sapiens, UniProt Q92698)", "T1 sequence (Q92698 whole entry)": "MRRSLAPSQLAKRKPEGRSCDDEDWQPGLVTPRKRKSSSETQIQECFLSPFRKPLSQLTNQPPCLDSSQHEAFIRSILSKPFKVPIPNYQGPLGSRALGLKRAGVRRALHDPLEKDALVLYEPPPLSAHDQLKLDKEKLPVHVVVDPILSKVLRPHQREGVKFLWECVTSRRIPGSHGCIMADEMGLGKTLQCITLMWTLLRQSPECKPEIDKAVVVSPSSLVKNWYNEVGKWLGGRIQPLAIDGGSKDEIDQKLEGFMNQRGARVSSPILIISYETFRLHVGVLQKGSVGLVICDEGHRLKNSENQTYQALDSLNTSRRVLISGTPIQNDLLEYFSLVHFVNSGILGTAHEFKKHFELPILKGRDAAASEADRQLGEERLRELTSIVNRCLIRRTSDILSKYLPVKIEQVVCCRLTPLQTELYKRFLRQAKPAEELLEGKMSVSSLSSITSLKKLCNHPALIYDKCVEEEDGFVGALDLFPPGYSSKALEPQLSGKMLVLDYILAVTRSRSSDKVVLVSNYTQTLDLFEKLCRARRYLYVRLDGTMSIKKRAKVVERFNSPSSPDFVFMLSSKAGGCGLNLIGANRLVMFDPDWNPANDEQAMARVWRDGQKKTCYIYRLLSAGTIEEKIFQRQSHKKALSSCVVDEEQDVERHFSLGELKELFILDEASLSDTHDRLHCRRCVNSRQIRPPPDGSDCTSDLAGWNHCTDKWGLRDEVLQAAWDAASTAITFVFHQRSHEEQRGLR", "assay": "inhibitors of human RAD54 branch migration, confirmation, biochemical, fluorescence, cherry-picked samples, dose series (AID 651657)", "format": "functional"}, "[8]": {"assay": "MDA-MB-231 cell growth inhibition, dose response, cytotoxicity control for RAD54 inhibitor project, CellTiter-Glo luminescence, cherry-pick (AID 651692)", "format": "functional, cell-based"}, "[9]": {"biological_target": "DNA repair protein RAD52 homolog (Homo sapiens, UniProt P43351)", "sequence (P43351 whole entry)": "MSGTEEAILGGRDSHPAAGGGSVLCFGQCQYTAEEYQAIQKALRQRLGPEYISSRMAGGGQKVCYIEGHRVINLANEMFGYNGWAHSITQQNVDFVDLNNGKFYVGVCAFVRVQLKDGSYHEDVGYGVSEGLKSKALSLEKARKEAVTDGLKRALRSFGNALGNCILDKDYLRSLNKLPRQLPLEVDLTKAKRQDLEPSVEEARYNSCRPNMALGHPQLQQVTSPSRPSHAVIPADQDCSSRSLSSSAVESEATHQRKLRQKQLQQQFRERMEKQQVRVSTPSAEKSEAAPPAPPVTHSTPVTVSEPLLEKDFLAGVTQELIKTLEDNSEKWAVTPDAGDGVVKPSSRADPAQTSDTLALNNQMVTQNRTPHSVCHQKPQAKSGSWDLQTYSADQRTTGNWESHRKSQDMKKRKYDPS", "format": "functional, biochemical"}, "Protein RecA": {"biological_target": "T2, Protein RecA (Mycobacterium tuberculosis, UniProt P9WHJ3)", "T2 sequence (P9WHJ3 whole entry)": "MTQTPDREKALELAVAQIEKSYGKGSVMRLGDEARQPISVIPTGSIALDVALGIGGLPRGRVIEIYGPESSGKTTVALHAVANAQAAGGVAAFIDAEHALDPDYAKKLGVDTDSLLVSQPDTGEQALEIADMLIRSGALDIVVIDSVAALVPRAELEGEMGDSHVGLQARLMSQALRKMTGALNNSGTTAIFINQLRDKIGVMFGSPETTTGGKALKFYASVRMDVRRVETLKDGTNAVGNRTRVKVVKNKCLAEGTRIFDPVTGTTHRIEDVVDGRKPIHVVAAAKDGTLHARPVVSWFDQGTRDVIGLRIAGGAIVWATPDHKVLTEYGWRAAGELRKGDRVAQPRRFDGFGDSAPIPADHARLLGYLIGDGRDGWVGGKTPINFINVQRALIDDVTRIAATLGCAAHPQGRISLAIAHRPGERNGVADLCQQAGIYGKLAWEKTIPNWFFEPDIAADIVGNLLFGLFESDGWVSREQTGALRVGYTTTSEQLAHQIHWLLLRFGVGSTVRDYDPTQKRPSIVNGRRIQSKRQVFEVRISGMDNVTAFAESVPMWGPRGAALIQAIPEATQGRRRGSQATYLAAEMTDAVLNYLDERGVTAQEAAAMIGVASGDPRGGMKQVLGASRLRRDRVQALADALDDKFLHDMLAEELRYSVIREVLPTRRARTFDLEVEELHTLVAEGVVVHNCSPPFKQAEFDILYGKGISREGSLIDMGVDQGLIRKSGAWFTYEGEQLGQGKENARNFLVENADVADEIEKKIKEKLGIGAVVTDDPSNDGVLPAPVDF", "assay": "Fluorescence Cell-Free Homogeneous Dose Retest to Identify Inhibitors of RecA-Intein Splicing Activity. [Related pubchem assays (depositor defined):AID2097, AID2223, AID489010, AID492950]", "format": "functional"}, "[10]": {"biological_target": "T3, Sentrin-specific protease 8 (Homo sapiens, UniProt Q96LD8)", "T3 sequence (Q96LD8 whole entry)": "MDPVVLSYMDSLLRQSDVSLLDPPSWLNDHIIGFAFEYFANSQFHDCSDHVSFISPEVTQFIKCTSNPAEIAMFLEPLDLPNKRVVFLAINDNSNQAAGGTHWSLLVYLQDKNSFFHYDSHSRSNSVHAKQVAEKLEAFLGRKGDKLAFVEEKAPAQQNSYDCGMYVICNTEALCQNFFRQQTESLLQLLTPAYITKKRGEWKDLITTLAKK", "format": "functional"}, "[11]": {"biological_target": "T3, Sentrin-specific protease 8", "format": "functional", "remark": "listed apart in the source"}, "Caspase-3": {"biological_target": "T4, Caspase-3 (Homo sapiens, UniProt P42574)", "T4 sequence (P42574 whole entry)": "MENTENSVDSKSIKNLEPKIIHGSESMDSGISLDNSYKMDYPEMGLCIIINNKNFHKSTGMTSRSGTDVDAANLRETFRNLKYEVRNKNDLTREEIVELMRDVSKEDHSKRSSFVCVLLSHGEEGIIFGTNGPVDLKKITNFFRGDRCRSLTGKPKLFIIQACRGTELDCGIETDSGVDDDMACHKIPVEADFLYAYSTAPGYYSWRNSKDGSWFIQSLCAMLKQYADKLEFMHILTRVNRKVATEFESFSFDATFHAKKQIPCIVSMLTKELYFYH", "assay": "Dose-response confirmation of uHTS inhibitor hits of Sentrin-Specific Protease 8 in a Caspase-3 Fluorescence assay.", "format": "functional"}, "[12]": {"biological_target": "T5, Replicative DNA helicase DnaB (Mycobacterium tuberculosis, UniProt P9WMR3)", "T5 sequence (P9WMR3 whole entry)": "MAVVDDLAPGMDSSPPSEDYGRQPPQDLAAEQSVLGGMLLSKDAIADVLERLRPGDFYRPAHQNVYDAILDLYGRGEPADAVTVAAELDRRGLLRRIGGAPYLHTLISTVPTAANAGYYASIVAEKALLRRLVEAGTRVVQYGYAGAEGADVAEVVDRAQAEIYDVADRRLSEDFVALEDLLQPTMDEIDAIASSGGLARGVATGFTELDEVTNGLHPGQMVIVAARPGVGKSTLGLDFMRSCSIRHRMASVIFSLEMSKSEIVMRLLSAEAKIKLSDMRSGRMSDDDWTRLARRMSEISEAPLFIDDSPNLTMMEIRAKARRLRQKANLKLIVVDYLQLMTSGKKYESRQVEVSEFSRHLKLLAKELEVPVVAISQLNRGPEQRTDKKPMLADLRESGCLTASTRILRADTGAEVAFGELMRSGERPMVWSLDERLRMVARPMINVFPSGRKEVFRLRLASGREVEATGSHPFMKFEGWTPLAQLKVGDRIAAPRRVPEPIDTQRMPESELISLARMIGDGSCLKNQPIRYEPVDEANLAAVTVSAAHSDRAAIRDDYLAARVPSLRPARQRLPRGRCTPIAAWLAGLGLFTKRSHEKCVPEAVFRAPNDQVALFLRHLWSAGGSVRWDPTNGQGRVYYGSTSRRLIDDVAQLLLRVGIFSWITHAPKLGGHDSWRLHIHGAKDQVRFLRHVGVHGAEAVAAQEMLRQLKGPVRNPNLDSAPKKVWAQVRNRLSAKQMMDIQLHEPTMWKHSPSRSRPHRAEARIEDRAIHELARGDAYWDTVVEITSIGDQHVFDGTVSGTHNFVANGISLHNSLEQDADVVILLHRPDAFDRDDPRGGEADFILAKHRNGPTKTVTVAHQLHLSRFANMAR", "assay": "DnaB intein splicing inhibitors, dose response, biochemical, cell-free fluorescence (AID 449749)", "format": "functional"}, "[13]": {"biological_target": "Nuclear receptor subfamily 5 group A member 2 (Homo sapiens, UniProt O00482)", "sequence (O00482 whole entry)": "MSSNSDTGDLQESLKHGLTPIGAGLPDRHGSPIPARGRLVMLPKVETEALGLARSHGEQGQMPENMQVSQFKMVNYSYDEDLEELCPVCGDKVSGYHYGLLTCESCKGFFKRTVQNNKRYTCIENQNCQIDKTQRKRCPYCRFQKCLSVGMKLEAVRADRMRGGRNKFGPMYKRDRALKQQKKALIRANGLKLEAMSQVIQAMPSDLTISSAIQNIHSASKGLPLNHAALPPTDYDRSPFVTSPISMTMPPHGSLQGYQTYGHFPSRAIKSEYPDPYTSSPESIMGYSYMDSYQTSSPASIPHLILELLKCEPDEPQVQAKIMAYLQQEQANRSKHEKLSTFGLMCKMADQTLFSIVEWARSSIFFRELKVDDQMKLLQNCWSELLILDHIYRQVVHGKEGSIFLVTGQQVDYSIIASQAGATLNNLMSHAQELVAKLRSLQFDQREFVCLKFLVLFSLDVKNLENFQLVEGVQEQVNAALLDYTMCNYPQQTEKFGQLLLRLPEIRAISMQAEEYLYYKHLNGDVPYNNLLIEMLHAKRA", "format": "functional, cell-based"}, "Steroidogenic factor 1": {"biological_target": "Steroidogenic factor 1 (Homo sapiens, UniProt Q13285)", "sequence (Q13285 whole entry)": "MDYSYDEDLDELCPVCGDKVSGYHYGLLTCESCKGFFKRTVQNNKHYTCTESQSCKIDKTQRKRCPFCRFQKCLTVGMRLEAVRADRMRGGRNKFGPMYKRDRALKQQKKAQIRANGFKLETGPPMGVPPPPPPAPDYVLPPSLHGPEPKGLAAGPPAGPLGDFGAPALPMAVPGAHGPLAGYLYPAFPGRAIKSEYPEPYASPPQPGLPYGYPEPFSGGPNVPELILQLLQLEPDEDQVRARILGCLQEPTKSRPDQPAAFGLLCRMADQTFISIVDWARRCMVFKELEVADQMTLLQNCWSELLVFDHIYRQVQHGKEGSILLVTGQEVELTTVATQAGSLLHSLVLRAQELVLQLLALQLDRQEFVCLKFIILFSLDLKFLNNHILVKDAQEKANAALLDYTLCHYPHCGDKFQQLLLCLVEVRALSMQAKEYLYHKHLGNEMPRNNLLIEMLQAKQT", "assay": "Counterscreen for inverse agonists of the liver receptor homolog-1 (LRH-1; NR5A2): Luminescence-based cell-based high throughput dose response assay to identify inverse agonists of the Steroidogenic Factor 1 Nuclear Receptor (SF1; NR5A1).", "format": "functional"}, "[14]": {"assay": "StAR promoter reporter inhibition counter-screen, dose response, counter-screen for LRH-1 inverse agonist project, cell-based, luminescence, luciferase reporter (AID 651969)", "format": "functional"}, "Beta-lactamase [15]": {"biological_target": "Beta-lactamase (Salmonella choleraesuis (strain SC-B67), UniProt Q5J463)", "sequence (Q5J463 whole entry)": "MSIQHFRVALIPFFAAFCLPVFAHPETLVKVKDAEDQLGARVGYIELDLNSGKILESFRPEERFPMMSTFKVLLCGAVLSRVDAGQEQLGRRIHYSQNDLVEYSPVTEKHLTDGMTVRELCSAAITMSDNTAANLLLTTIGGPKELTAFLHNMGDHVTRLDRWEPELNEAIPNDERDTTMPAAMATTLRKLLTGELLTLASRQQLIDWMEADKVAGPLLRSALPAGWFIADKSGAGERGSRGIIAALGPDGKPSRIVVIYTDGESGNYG"}, "Beta-lactamase [16]": {"biological_target": "Beta-lactamase (Pseudomonas aeruginosa, UniProt Q79MP6)", "sequence (Q79MP6 whole entry)": "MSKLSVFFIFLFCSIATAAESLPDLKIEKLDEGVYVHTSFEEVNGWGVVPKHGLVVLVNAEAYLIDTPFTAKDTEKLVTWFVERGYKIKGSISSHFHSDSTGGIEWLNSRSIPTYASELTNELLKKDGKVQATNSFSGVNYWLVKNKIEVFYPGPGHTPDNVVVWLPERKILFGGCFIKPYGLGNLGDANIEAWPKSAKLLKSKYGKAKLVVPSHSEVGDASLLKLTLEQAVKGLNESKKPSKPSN"}, "Beta Lactamase": {"biological_target": "Beta Lactamase (Pseudomonas aeruginosa, UniProt Q932Y6)", "sequence (Q932Y6 whole entry)": "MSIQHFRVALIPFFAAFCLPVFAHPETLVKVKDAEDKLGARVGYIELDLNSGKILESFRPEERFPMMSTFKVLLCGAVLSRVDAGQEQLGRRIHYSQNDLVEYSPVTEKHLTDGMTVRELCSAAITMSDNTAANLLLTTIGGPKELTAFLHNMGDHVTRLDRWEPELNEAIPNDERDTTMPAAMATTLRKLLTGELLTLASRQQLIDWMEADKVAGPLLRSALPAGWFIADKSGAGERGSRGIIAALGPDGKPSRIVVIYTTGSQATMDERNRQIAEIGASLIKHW", "assay": "beta-lactamase reporter inhibitor potency, dose response, artefact control for NOD2-RIPK2 interaction inhibitor project, BLA reporter cells, FRET fluorescence (AID 651552)", "format": "functional, cell-based"}, "Paired box protein Pax-8": {"biological_target": "Paired box protein Pax-8 (Homo sapiens, UniProt Q06710)", "sequence (Q06710 whole entry)": "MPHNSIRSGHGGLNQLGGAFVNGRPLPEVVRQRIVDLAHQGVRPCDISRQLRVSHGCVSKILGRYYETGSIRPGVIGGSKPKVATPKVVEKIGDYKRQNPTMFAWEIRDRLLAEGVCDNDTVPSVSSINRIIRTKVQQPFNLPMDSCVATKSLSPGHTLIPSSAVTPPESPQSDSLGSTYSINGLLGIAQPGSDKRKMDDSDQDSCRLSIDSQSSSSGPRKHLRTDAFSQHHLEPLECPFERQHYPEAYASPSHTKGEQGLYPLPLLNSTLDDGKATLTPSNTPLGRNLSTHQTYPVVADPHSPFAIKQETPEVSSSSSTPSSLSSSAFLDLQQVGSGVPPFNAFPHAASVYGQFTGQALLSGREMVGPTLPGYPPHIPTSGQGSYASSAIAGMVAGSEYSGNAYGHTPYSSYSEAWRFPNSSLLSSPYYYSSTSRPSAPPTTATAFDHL", "assay": "inhibitors of PAX8-driven TPO luciferase reporter, dose response, RMG-I cells, cherry-pick (AID 687027)", "format": "functional, cell-based"}, "[17]": {"assay": "HepG2 cell cytotoxicity, dose response, cytotoxicity control for Shn3 inhibitor project, CellTiter-Glo, cherry-picked (AID 624134)", "format": "functional, cell-based"}, "[18]": {"assay": "Shn3 3'UTR reporter inhibitors, dose response, cell-based, Clone20 osteoblasts, firefly luciferase, cherry-picked (AID 624132)", "format": "functional"}, "[19]": {"assay": "control 3'UTR Renilla luciferase suppression, dose response, counter-screen for Shn3 inhibitor project, cell-based, Clone20-Shn3RL, cherry-picked (AID 624133)", "format": "functional"}, "[20]": {"assay": "Fluorescence-based cell-based high throughput dose response assay for inhibitors of the interaction of nucleotide-binding oligomerization domain containing 2 (NOD2) and the receptor-interacting serine-threonine kinase 2 (RIPK2).", "format": "functional", "conditions": "Homo sapiens"}}, "note": "Calls of active or inactive are those of the source.", "data": [{"smiles": "C[C@H](CO)N1C[C@H](C)[C@H](CN(C)Cc2ccccc2)Oc2c(NC(=O)c3ccncc3)cccc2C1=O", "values": [{"measurement": "IC50", "setting": "[1]", "value": "75.4 µM (inactive)"}, {"measurement": "IC50", "setting": "[2]", "value": "> 100 µM (inactive)"}, {"measurement": "IC50", "setting": "[3]", "value": "20.6 µM (inactive)"}, {"measurement": "IC50", "setting": "[4]", "value": "> 100 µM (inactive)"}, {"measurement": "AC50", "setting": "[5]", "value": "0.208 µM (active)"}, {"measurement": "IC50", "setting": "[6]", "value": "20.6 µM (inactive)"}]}, {"smiles": "COc1cc2ccccc2cc1C(=O)N(CCN(C)C)c1nc2c(OC)ccc(OC)c2s1", "values": [{"measurement": "AC50", "setting": "[7]", "value": "100 µM (inactive)"}, {"measurement": "AC50", "setting": "[8]", "value": "18.1 µM (active)"}, {"measurement": "AC50", "setting": "[9]", "value": "7.36 µM (active)"}]}, {"smiles": "COc1ccc(-c2csc(CCN3N=C(C)CC3=O)n2)cc1", "values": [{"measurement": "EC50", "setting": "Protein RecA", "value": "1.54 µM (active)"}, {"measurement": "IC50", "setting": "[10]", "value": "14.6 µM (active)"}, {"measurement": "IC50", "setting": "[11]", "value": "12.1 µM (active)"}, {"measurement": "IC50", "setting": "Caspase-3", "value": "100 µM (inactive)"}, {"measurement": "AC50", "setting": "[12]", "value": "3.27 µM (active)"}]}, {"smiles": "CCCN(CC(=O)Nc1ccc(C(C)=O)cc1)CC(=O)Nc1ccccc1C", "values": [{"measurement": "IC50", "setting": "[13]", "value": "12 µM (inactive)"}, {"measurement": "IC50", "setting": "Steroidogenic factor 1", "value": "0.941 µM (active)"}, {"measurement": "IC50", "setting": "[14]", "value": "35.9 µM (inactive)"}]}, {"smiles": "CC(C)(C)c1ccc(-c2c(C(=O)O)c(C(=O)O)c3n2CSC3)cc1", "values": [{"measurement": "IC50", "setting": "Beta-lactamase [15]", "value": "> 59.6 µM (inactive)"}, {"measurement": "IC50", "setting": "Beta-lactamase [16]", "value": "35.1 µM (inactive)"}]}, {"smiles": "CC1CC(C)CC(C)C(O)C(C#N)=CC=CCC(C2CCCC2C(=O)O)OC(=O)CC(O)C(C)C1", "note": "(stereo not given)", "values": [{"measurement": "IC50", "setting": "Beta Lactamase", "value": "49.8 µM (inactive)"}, {"measurement": "AC50", "setting": "Paired box protein Pax-8", "value": "< 0.26 µM (active)"}, {"measurement": "AC50", "setting": "[17]", "value": "10.2 µM (active)"}, {"measurement": "AC50", "setting": "[18]", "value": "< 0.26 µM (active)"}, {"measurement": "AC50", "setting": "[19]", "value": "1.08 µM (active)"}, {"measurement": "IC50", "setting": "[20]", "value": "49.8 µM (inactive)"}]}]}
